Where no end group is shown, it is not given here.
Experiments:
trypsin = assay: Trypsin sensing with HS-PEG-peptide conjugates and Arg-Arg-AuNPs assemblies; format: biochemical
Experimental: Peptides containing the motif Arg-Arg-Lys (RRK) were thus conjugated to a thiolated PEG capped with a carboxyl group (HS-PEG12-COOH, Mw=634 Da) via EDC/NHS cross-linking reaction. Three peptides based on the motif RRK were investigated and the number of RRK repetitions varied from 1 to 3 to increase the mass and charge of the resulting HS-PEG-peptide conjugate (FIG. 6A).
From concentrations of 10 μM, HS-PEG12-COOH is capable to dissociate 100% of the assemblies (FIG. 21). However, the conjugation of the peptides to the HS-PEG12-COOH was expected to decrease its capacity to dissociate the assemblies as it increases its size and charge. In this context, the addition of the HS-PEG-peptide conjugates to AuNPs assemblies could not generate a colorimetric signal. However, in the presence of trypsin, the proteolytic cleavage could progressively remove the amino acids residues from the conjugate, thus reducing its size and charge that would restore the dissociation capacity. A colorimetric signal, proportional to the trypsin activity, could thus be observed (FIG. 6B).
Typically, 1 mL of HS-PEG12-COOH (HS—(CH2CH2O)12—CH2CH2COOH, 634 Da, 1 mM) dissolved in MES buffer (10 mM, pH=5.5) was activated via the addition of 100 μL of EDC (50 mM, MES) and 40 μL of NHS (500 mM, MES). The reaction was stirred at room temperature for one hour. After one hour, 1 mL of peptide (or NH2-molecule) (1 mM) dissolved in PBS (100 mM, pH=7.4) was added to the activated HS-PEG12-COOH. The reaction was stirred for 4 hours at room temperature and then stored at 4° C.
Typically, 5 μL of the PEG-peptide conjugate (0.44 mM) were added to 5 μL of PBS 1×. […] At the end of the incubation, 100 μL of aggregated AuNPs (Arg-Arg-AuNPs) were added, and a color change proportional to the trypsin concentration was observed. UV-Vis spectra were recorded 30 minutes later.

trypsin activity = assay: Detection of trypsin activity in vivo with photoacoustic imaging, gold nanorods assemblies; details: mouse model

For “HS-PEG-RRKRRK: HS-PEG12-COOH conjugated to peptide RRKRRK via EDC/NHS; mixture of single and multiple conjugations (also: HS-PEG12 conjugated via EDC/NHS, site not given here, mixture of single and multiple conjugations)”, the “dissociation capacity of the intact conjugate” value (trypsin; titrated to Arg-Arg-AuNPs, up to >100 μM, no trypsin) was “total quenching of the dissociation capacity”, the “dissociation capacity after digestion with trypsin” value (trypsin; trypsin 10 μM, 37° C., 24 h) was “restored” and the “limit of detection of trypsin” value (trypsin; visual detection) was “picomolar”. The photoacoustic signal (trypsin activity) was “increase of photoacoustic signal”.
